Experimental data published in US20210395313A1, “PEPTIDE PAC1 ANTAGONISTS” (AMGEN INC., priority 2017, published 2021).
Where a SMILES comes first, the peptide text is derived from it. Bridges are numbered along the chain shown (N, C = ends).

Columns and labels:
rat PAC1 receptor = biological target: T1, rat PAC1 receptor (Rattus norvegicus, UniProt P32215); assay: LANCE Ultra cAMP accumulation antagonist assay in RG-2 cells; format: cell-based;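 further: RG-2 rat glioma cells endogenously expressing PAC1, test peptide preincubated 30 min, then PAC1 agonist added at its EC80 for 15 min, cAMP accumulation read by LANCE Ultra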
T1 construct: SHSY-5Y (human neuroblastoma cell line) and RG-2 (rat glioma cell line) cells endogenously express human and rat PAC1 receptors, respectively; endogenous in cells; host or cells: RG-2 rat glioma cells
T1 sequence (P32215 20-523): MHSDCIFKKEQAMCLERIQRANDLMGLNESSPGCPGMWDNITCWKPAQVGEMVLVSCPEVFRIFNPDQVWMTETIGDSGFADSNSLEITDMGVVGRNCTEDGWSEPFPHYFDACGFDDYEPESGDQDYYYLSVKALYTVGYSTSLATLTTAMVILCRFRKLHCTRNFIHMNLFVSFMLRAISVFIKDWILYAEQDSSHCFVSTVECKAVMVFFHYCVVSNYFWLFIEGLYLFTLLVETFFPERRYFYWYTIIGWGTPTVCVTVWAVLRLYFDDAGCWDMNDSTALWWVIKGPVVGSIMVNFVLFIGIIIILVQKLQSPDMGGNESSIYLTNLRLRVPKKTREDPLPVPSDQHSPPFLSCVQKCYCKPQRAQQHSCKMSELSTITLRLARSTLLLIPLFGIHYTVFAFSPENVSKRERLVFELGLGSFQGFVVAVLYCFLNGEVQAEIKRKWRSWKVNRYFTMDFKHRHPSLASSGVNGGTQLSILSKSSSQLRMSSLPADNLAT
Protocol: (§1) In order to determine the potency of peptide antagonists at the PAC1 receptor, functional cAMP accumulation assays using LANCE Ultra cAMP assay kit to measure the agonist and antagonist activity of PAC1 peptides were used. SHSY-5Y (human neuroblastoma cell line) and RG-2 (rat glioma cell line) cells endogenously express human and rat PAC1 receptors, respectively. Agonist activity of PAC1 peptides was tested by incubating with SHSY-5Y at 2,000 cells per well or RG-2 at 5,000 cells per well for 15 minutes at room temperature. PAC1 receptor agonist PACAP38 or maxadilan was included as a positive control. The reaction was stopped by adding detection mixture, europium (Eu) chelate-labeled cAMP tracer and cAMP-specific monoclonal antibodies labeled with the ULight™ dye, to all wells followed by a 60-minute incubation at room temperature. The assay plates were then read on an EnVision instrument at an emission wavelength of 665 and 615 nm and data were analyzed using Genedata Screener or GraphPad Prism software. A similar procedure was used in the antagonist assays by using a fixed concentration of PAC1 agonist. The concentrations of agonists were chosen based on their ECK) values at PAC1 receptors in SHSY-5Y or RG-2 cells. SHSY-5Y or RG-2 cells were added into 96-well half-area white plates. Serially diluted PAC1 peptides at ten concentrations were added and incubated for 30 minutes at room temperature. PAC1 agonist at EC80 concentration was then added and further incubated for 15 minutes at room temperature. The reaction was stopped by adding detection mixture to all wells followed by a 60-minute incubation at room temperature. The assay plates were read and analyzed the same way as that of agonist assay. Cells, agonists, and PAC1 peptides were prepared in freshly made assay buffer (F-12, 0.5 mM IBMX, 0.1 or 0.4% BSA (pH 7.4)). Detection mixture was made by mixing a 1/50 dilution of the Eu-cAMP tracer stock solution in cAMP Detection Buffer and a 1/150 dilution of the ULight-anti-cAMP stock solution in cAMP Detection Buffer. Europium (Eu) chelate-labeled cAMP tracer, cAMP-specific monoclonal antibodies labeled with the ULight™ dye, BSA, and detection buffer were provided in LANCE Ultra cAMP Kit from PerkinElmer

human PAC1 receptor = biological target: T2, human PAC1 receptor (Homo sapiens, UniProt P41586); assay: LANCE Ultra cAMP accumulation antagonist assay in SHSY-5Y cells; format: cell-based;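 further: inhibition of cAMP accumulation evoked by PAC1 agonist at its EC80 in SHSY-5Y cells endogenously expressing receptor, 30 min preincubation then 15 min agonist, TR-FRET readout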
T2 construct: SHSY-5Y (human neuroblastoma cell line) and RG-2 (rat glioma cell line) cells endogenously express human and rat PAC1 receptors, respectively; endogenous in cells; host or cells: SHSY-5Y human neuroblastoma cells
T2 sequence (P41586 21-468): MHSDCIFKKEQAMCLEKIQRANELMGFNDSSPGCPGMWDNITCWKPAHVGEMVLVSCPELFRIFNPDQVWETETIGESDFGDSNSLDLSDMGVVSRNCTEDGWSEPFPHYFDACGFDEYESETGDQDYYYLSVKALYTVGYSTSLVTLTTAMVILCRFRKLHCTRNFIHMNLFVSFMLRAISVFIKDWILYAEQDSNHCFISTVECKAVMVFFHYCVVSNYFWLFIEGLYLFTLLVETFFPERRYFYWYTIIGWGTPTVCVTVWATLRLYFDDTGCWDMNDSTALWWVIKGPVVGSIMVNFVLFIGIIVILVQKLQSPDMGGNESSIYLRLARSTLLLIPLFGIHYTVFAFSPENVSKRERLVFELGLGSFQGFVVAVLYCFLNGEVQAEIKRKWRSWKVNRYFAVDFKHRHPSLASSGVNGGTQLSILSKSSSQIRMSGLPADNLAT
Protocol: as §1

CC[C@H](C)[C@H](NC(=O)[C@H](C)NC(=O)[C@H](CCCCN)NC(=O)[C@H](CCCNC(=N)N)NC(=O)[C@H](Cc1ccccc1)NC(=O)[C@H](CCC(N)=O)NC(=O)[C@@H]1CSSC[C@H](N)C(=O)N[C@@H](CC(=O)O)C(=O)N[C@@H](C)C(=O)N[C@@H]([C@@H](C)O)C(=O)N1)C(=O)N[C@@H](CC(=O)O)C(=O)N[C@@H](CC(=O)O)C(=O)N[C@H]1CSSC[C@@H](C(=O)N[C@@H](CCSC)C(=O)N[C@@H](CCCCN)C(=O)N[C@@H](CCC(N)=O)C(=O)N[C@@H](CCCCN)C(=O)N[C@@H](CCCCN)C(=O)N[C@@H](CCCCN)C(=O)N[C@@H](CCC(=O)O)C(=O)N[C@@H](Cc2c[nH]c3ccccc23)C(=O)N[C@@H](CCCCN)C(=O)N[C@@H](C)C(=O)NCC(N)=O)NC(=O)[C@H](C)NC(=O)[C@H](CCCCN)NC(=O)[C@H](Cc2ccccc2)NC(=O)[C@H](C(C)C)NC(=O)[C@H](CO)NC(=O)[C@H](CO)NC(=O)[C@H](Cc2c[nH]cn2)NC(=O)[C@H](Cc2c[nH]c3ccccc23)NC(=O)[C@H](CO)NC(=O)[C@H](CCCNC(=N)N)NC(=O)[C@H](Cc2ccc(O)cc2)NC(=O)[C@H](Cc2ccc(O)cc2)NC1=O [compound 61] (H-CDATCQFRKAIDDCYYRSWHSSVFKACMKQKKKEWKAG-NH2; disulfide 1-5, 14-27) showed an IC50 (rat PAC1 receptor) of 0.01 to 1 nM and an IC50 (human PAC1 receptor) of 0.01 to 1 nM.

With CC[C@H](C)[C@H](NC(=O)[C@H](C)NC(=O)[C@H](CCCCN)NC(=O)[C@H](CCCNC(=N)N)NC(=O)[C@H](Cc1ccccc1)NC(=O)[C@H](CCC(N)=O)NC(=O)[C@@H]1CSSC[C@H](N)C(=O)N[C@@H](CC(=O)O)C(=O)N[C@@H](C)C(=O)N[C@@H]([C@@H](C)O)C(=O)N1)C(=O)N[C@@H](CC(=O)O)C(=O)N[C@@H](CC(=O)O)C(=O)N[C@H]1CSSC[C@@H](C(=O)N[C@@H](CCSC)C(=O)N[C@@H](CCCCN)C(=O)N[C@@H](CCC(N)=O)C(=O)N[C@@H](CCCCN)C(=O)N[C@@H](CCCCN)C(=O)N[C@@H](CCCCN)C(=O)N[C@@H](CCC(=O)O)C(=O)N[C@@H](Cc2ccccc2)C(=O)N[C@@H](CCCCN)C(=O)N[C@@H](C)C(=O)NCC(N)=O)NC(=O)[C@H](C)NC(=O)[C@H](CCCCN)NC(=O)[C@H](Cc2ccccc2)NC(=O)[C@H](CO)NC(=O)[C@H](CO)NC(=O)[C@H](Cc2c[nH]cn2)NC(=O)[C@H](Cc2c[nH]c3ccccc23)NC(=O)[C@H](CO)NC(=O)[C@H](CCCNC(=N)N)NC(=O)[C@H](Cc2ccc(O)cc2)NC(=O)[C@H](Cc2ccc(O)cc2)NC1=O [compound 63] (H-CDATCQFRKAIDDCYYRSWHSSFKACMKQKKKEFKAG-NH2; disulfide 1-5, 14-26) the IC50 (rat PAC1 receptor) was 0.01 to 1 nM and the IC50 (human PAC1 receptor) was 0.01 to 1 nM.

Molecule CC[C@H](C)[C@H](NC(=O)[C@H](C)NC(=O)[C@H](CCCCN)NC(=O)[C@H](CCCNC(=N)N)NC(=O)[C@H](Cc1ccccc1)NC(=O)[C@H](CCC(N)=O)NC(=O)[C@@H]1CSSC[C@H](N)C(=O)N[C@@H](CC(=O)O)C(=O)N[C@@H](C)C(=O)N[C@@H]([C@@H](C)O)C(=O)N1)C(=O)N[C@@H](CC(=O)O)C(=O)N[C@@H](CC(=O)O)C(=O)N[C@H]1CSSC[C@@H](C(=O)N[C@@H](CCSC)C(=O)N[C@@H](CCCCN)C(=O)N[C@@H](CCC(N)=O)C(=O)N[C@@H](CCCCN)C(=O)N[C@@H](CCCCN)C(=O)N[C@@H](CCCCN)C(=O)N[C@@H](CCC(=O)O)C(=O)N[C@@H](Cc2c[nH]c3ccccc23)C(=O)N[C@@H](CCCCN)C(=O)N[C@@H](C)C(=O)NCC(=O)N[C@@H](Cc2c[nH]cn2)C(=O)O)NC(=O)[C@H](C)NC(=O)[C@H](CCCCN)NC(=O)[C@H](Cc2ccccc2)NC(=O)[C@H](C(C)C)NC(=O)[C@H](CO)NC(=O)[C@H](CO)NC(=O)[C@H](Cc2c[nH]cn2)NC(=O)[C@H](Cc2c[nH]c3ccccc23)NC(=O)[C@H](CO)NC(=O)[C@H](CCCNC(=N)N)NC(=O)[C@H](Cc2ccc(O)cc2)NC(=O)[C@H](Cc2ccc(O)cc2)NC1=O [compound 72] (H-CDATCQFRKAIDDCYYRSWHSSVFKACMKQKKKEWKAGH-OH; disulfide 1-5, 14-27) has an IC50 (rat PAC1 receptor) of 0.01 to 1 nM and an IC50 (human PAC1 receptor) of 0.01 to 1 nM.

In the case of CC[C@H](C)[C@H](NC(=O)[C@H](C)NC(=O)[C@H](CCCCN)NC(=O)[C@H](CCCNC(=N)N)NC(=O)[C@H](Cc1ccccc1)NC(=O)[C@H](CCC(N)=O)NC(=O)[C@@H]1CSSC[C@H](N)C(=O)N[C@@H](CC(=O)O)C(=O)N[C@@H](C)C(=O)N[C@@H]([C@@H](C)O)C(=O)N1)C(=O)N[C@@H](CC(=O)O)C(=O)N[C@@H](CC(=O)O)C(=O)N[C@H]1CSSC[C@@H](C(=O)N[C@@H](CCSC)C(=O)N[C@@H](CCCCN)C(=O)N[C@@H](CCC(N)=O)C(=O)N[C@@H](CCCCN)C(=O)N[C@@H](CCCCN)C(=O)N[C@@H](CCCCN)C(=O)N[C@@H](CCC(=O)O)C(=O)N[C@@H](Cc2c[nH]c3ccccc23)C(=O)N[C@@H](CCCCN)C(=O)N[C@@H](C)C(=O)NCC(=O)N[C@@H](Cc2c[nH]cn2)C(=O)O)NC(=O)[C@H](C)NC(=O)[C@H](CCCCN)NC(=O)[C@H](Cc2ccccc2)NC(=O)[C@H](C(C)C)NC(=O)[C@H](CO)NC(=O)[C@H](CO)NC(=O)[C@H](Cc2c[nH]cn2)NC(=O)[C@H](Cc2c[nH]cn2)NC(=O)[C@H](C)NC(=O)[C@H](CCC(N)=O)NC(=O)[C@H](CCCNC(=N)N)NC(=O)[C@H](C(C)C)NC1=O [compound 75] (H-CDATCQFRKAIDDCVRQAHHSSVFKACMKQKKKEWKAGH-OH; disulfide 1-5, 14-27), the IC50 (rat PAC1 receptor) is reported as < 0.01 nM and the IC50 (human PAC1 receptor) is reported as 0.01 to 1 nM.

For CC[C@H](C)[C@H](NC(=O)[C@H](C)NC(=O)[C@H](CCCCN)NC(=O)[C@H](CCCNC(=N)N)NC(=O)[C@H](Cc1ccccc1)NC(=O)[C@H](CCC(N)=O)NC(=O)[C@@H]1CSSC[C@H](N)C(=O)N[C@@H](CC(=O)O)C(=O)N[C@@H](C)C(=O)N[C@@H]([C@@H](C)O)C(=O)N1)C(=O)N[C@@H](CC(=O)O)C(=O)N[C@@H](CC(=O)O)C(=O)N[C@H]1CSSC[C@@H](C(=O)N[C@@H](CCSC)C(=O)N[C@@H](CCCCN)C(=O)N[C@@H](CCC(N)=O)C(=O)N[C@@H](CCCCN)C(=O)N[C@@H](CCCCN)C(=O)N[C@@H](CCCCN)C(=O)N[C@@H](CCC(=O)O)C(=O)N[C@@H](Cc2ccccc2)C(=O)N[C@@H](CCCCN)C(N)=O)NC(=O)[C@H](CCC(=O)O)NC(=O)[C@H](CCCCN)NC(=O)[C@H](Cc2ccccc2)NC(=O)[C@H](CO)NC(=O)[C@H](CC(N)=O)NC(=O)[C@H](CO)NC(=O)[C@H](Cc2c[nH]cn2)NC(=O)[C@H](Cc2c[nH]cn2)NC(=O)[C@H](C)NC(=O)[C@H](CCC(N)=O)NC(=O)[C@H](CCCCN)NC(=O)[C@H](CC(=O)O)NC1=O [compound 222], the IC50 (rat PAC1 receptor) was 1 to 100 nM and the IC50 (human PAC1 receptor) was < 0.01 nM.

CC[C@H](C)[C@H](NC(=O)[C@H](C)NC(=O)[C@H](CCCCN)NC(=O)[C@H](CCCNC(=N)N)NC(=O)[C@H](Cc1ccccc1)NC(=O)[C@H](CCC(N)=O)NC(=O)[C@@H]1CSSC[C@H](N)C(=O)N[C@@H](CC(=O)O)C(=O)N[C@@H](C)C(=O)N[C@@H]([C@@H](C)O)C(=O)N1)C(=O)N[C@@H](CC(=O)O)C(=O)N[C@@H](CC(=O)O)C(=O)N[C@H]1CSSC[C@@H](C(=O)N[C@@H](CCSC)C(=O)N[C@@H](CCCCN)C(=O)N[C@@H](CCC(N)=O)C(=O)N[C@@H](CCCCN)C(=O)N[C@@H](CCCCN)C(=O)N[C@@H](CCCCN)C(=O)N[C@@H](CCC(=O)O)C(=O)N[C@@H](Cc2ccccc2)C(=O)N[C@@H](CCCCN)C(N)=O)NC(=O)[C@H](CCC(=O)O)NC(=O)[C@H](CCCCN)NC(=O)[C@H](Cc2ccccc2)NC(=O)[C@H](C(C)C)NC(=O)[C@H](CO)NC(=O)[C@H](CO)NC(=O)[C@H](Cc2c[nH]cn2)NC(=O)[C@H](Cc2c[nH]cn2)NC(=O)[C@H](C)NC(=O)[C@H](CCC(N)=O)NC(=O)[C@H](CCCCN)NC(=O)[C@H](CC(=O)O)NC1=O [compound 223] was tested, and the IC50 (rat PAC1 receptor) was 1 to 100 nM and the IC50 (human PAC1 receptor) was < 0.01 nM.
